# Test results: US12011444B2, “N-substituted indole derivatives as PGE2 receptor modulators” (Idorsia Pharmaceuticals Ltd, priority 2015, dated 2024)
# Assays:
# [1] = biological target: PTRGER4 (EP4) (Homo sapiens (Human), UniProt P35408); assay: hEP4 b-arrestin assay (PathHunter HEK 293 PTGER4 b-arrestin cells); format: cell-based
# Procedure, shortened: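 Stably transfected HEK293 cells carrying EP4–ProLink and β-arrestin 2–EA (β-gal fragment complementation), pre-incubated with compound 15 min at 37 °C, then stimulated with PGE2 (20 nM final) for 120 min at 37 °C. Chemiluminescence read after 1 h detection reagent at room temperature; activity per concentration expressed as percent of DMSO control.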
# [2] = biological target: PTGER2 (EP2) (Homo sapiens (Human), UniProt P43116); assay: hEP2 b-arrestin assay (PathHunter HEK 293 PTGER2 b-arrestin cells); format: cell-based
# Sequence of PTGER2 (EP2) (P43116 whole entry, the tested form may be a part): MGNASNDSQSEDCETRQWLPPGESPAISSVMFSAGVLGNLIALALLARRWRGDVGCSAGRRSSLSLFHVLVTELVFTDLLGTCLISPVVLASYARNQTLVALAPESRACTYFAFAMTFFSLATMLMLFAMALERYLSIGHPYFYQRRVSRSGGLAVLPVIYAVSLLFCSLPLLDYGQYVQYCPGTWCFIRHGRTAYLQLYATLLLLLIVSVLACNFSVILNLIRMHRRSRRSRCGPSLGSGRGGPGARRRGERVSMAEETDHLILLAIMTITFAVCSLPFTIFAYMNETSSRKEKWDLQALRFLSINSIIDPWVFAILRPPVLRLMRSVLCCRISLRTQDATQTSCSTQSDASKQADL
# Procedure, shortened: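 HEK293 cells expressing ProLink-tagged EP2 and EA-fused β-arrestin 2 (enzyme fragment complementation) were seeded 24 h, pre-incubated with compound 15 min at 37 °C, then stimulated with 5 μM PGE2 (final) for 120 min.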
# [3] = antagonistic activity on hEP4, mean where measured multiple times
# [4] = antagonistic activity on hEP2, mean where measured multiple times
# [5] = hEP4 b-arrestin assay (values without asterisk)
# [6] = hEP2 b-arrestin assay (values without asterisk)
# Sequence of PTRGER4 (EP4) (P35408 whole entry, looked up, the tested form may be a part): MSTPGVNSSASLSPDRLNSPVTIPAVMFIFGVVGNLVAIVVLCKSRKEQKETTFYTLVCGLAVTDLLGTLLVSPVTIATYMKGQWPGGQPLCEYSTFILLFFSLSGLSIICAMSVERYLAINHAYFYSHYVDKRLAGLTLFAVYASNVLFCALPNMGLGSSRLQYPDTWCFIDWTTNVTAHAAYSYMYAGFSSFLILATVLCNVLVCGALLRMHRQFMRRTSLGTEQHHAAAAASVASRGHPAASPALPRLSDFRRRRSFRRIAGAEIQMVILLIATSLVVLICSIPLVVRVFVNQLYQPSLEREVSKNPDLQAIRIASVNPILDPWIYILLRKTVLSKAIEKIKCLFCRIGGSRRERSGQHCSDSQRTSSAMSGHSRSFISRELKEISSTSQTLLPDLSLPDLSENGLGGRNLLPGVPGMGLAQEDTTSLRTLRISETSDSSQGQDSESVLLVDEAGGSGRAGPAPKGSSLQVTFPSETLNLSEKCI
Molecule,"IC50 [1, 3] [nM]","IC50 [2, 4] [nM]","IC50 [1, 5] [nM]","IC50 [2, 6] [nM]"
COc1cccc2c1cc(C)n2CCNc1cc(-c2ccc3c(c2)C(C)NC3=O)ncn1 (racemic) [compound 86],873,12,–,–
"COc1ccc(F)c2c1cc(C#N)n2CCNc1cc(-c2cc(F)c(C(=O)O)s2)ncn1 [Example 806, 5-{6-[2-(2-Cyano-7-fluoro-4-methoxy-indol-1-yl)-ethylamino]-pyrimidin-4-yl}-3-fluoro-thiophene-2-carboxylic acid]",–,–,10,7
CCNc1cc(-c2cc(NCCn3c(C)cc4c(F)ccc(F)c43)ncn2)ccc1C(=O)O [compound 243],281,2,–,–
"COc1cc(F)c(F)c2c1cc(C)n2CCNc1cc(-c2ccc(-c3ncno3)cc2)ncn1 [compound 299, [2-(6,7-Difluoro-4-methoxy-2-methyl-indol-1-yl)-ethyl]-[6-(4-[1,2,4]oxadiazol-5-yl-phenyl)-pyrimidin-4-yl]-amine]",81,10,–,–
Cc1cc(-c2cc(NCCn3c(C)cc4c(C)ccc(F)c43)ncn2)ccc1S(N)(=O)=O [compound 135],288,96,–,–
"CCOc1cc(-c2cc(NCCn3c(C#N)cc4c(OC)ccc(F)c43)ncn2)ccc1C(=O)C(=O)O [Example 934, (4-{6-[2-(2-Cyano-7-fluoro-4-methoxy-indol-1-yl)-ethylamino]-pyrimidin-4-yl}-2-ethoxy-phenyl)-oxo-acetic acid]",–,–,31,16
"COC(=O)Nc1ccc(-c2cc(NCCn3c(C)cc4c(OC)ccc(F)c43)ncn2)cc1 [Example 1041, (4-{6-[2-(7-Fluoro-4-methoxy-2-methyl-indol-1-yl)-ethylamino]-pyrimidin-4-yl}-phenyl)-carbamic acid methyl ester]",–,–,246,26
Cc1ccc(F)c2c1cc(C)n2CCNc1cc(-c2ccc(-c3nnc[nH]3)cc2)ncn1 [compound 99],123,113,–,–
CSc1cc(-c2cc(NCCn3c(C)cc4c(C)c(F)cc(Cl)c43)ncn2)ccc1C(=O)O [compound 270],513,46,–,–
"COc1ccc(F)c2c1cc(C)n2CCNc1cc(-c2ccc(C(=O)O)c3[nH]ccc23)ncn1 [compound 323, 4-{6-[2-(7-Fluoro-4-methoxy-2-methyl-indol-1-yl)-ethylamino]-pyrimidin-4-yl}-1H-indole-7-carboxylic acid]",708,18,–,–
"N#Cc1c(F)c2ccccc2n1CCNc1cc(-c2cc(C(F)(F)F)c(C(=O)O)s2)ncn1 [Example 840, 5-{6-[2-(2-Cyano-3-fluoro-indol-1-yl)-ethylamino]-pyrimidin-4-yl}-3-trifluoromethyl-thiophene-2-carboxylic acid]",–,–,47,48
Cc1nc(-c2ccc(-c3cc(NCCn4c(C)cc5c(C)ccc(F)c54)ncn3)cc2)cs1 [compound 195],534,260,–,–
"CNc1nnc(-c2ccc(-c3cc(NCCn4c(C)cc5c(C)ccc(F)c54)ncn3)cc2)s1 [compound 324, [2-(7-Fluoro-2,4-dimethyl-indol-1-yl)-ethyl]-{6-[4-(5-methylamino-[1,3,4]thiadiazol-2-yl)-phenyl]-pyrimidin-4-yl}-amine]",23,4,–,–
"COc1ccc(F)c2c1cc(C#N)n2CCNc1cc(-c2ccc(CNS(C)(=O)=O)cc2)ncn1 [Example 983, N-(4-{6-[2-(2-Cyano-7-fluoro-4-methoxy-indol-1-yl)-ethylamino]-pyrimidin-4-yl}-benzyl)-methanesulfonamide]",–,–,244,248
"CCOc1cc(-c2cc(NCCn3c(C#N)cc4cccc(F)c43)ncn2)sc1C(=O)O [Example 892, 5-{6-[2-(2-Cyano-7-fluoro-indol-1-yl)-ethylamino]-pyrimidin-4-yl}-3-ethoxy-thiophene-2-carboxylic acid]",–,–,24,1
"Cc1cccc2c1cc(C)n2CCNc1cc(-c2cc(OC(C)C)c(C(=O)O)s2)ncn1 [Example 879, 5-{6-[2-(2,4-Dimethyl-indol-1-yl)-ethylamino]-pyrimidin-4-yl}-3-isopropoxy-thiophene-2-carboxylic acid]",–,–,36,4
COc1ccc(Cl)c2c1cc(C)n2CCNc1cc(-c2cc(Cl)c(C(=O)O)c(Cl)c2)ncn1 [compound 292],397,52,–,–
"N#Cc1c(F)c2ccccc2n1CCNc1cc(-c2cc(F)c(C(=O)O)s2)ncn1 [Example 846, 5-{6-[2-(2-Cyano-3-fluoro-indol-1-yl)-ethylamino]-pyrimidin-4-yl}-3-fluoro-thiophene-2-carboxylic acid]",–,–,221,24

Molecule,"IC50 [1, 3] [nM]","IC50 [2, 4] [nM]","IC50 [1, 5] [nM]","IC50 [2, 6] [nM]"
"COc1cc(F)cc2c1cc(C)n2CCNc1cc(-c2ccc(-c3ccns3)cc2)ncn1 [compound 205, [2-(6-Fluoro-4-methoxy-2-methyl-indol-1-yl)-ethyl]-[6-(4-isothiazol-5-yl-phenyl)-pyrimidin-4-yl]-amine]",334,44,–,–
5-{6-[2-(6-Fluoro-4-methoxy-2-methyl-indol-1-yl)-ethylamino]-pyrimidin-4-yl}-thiophen-3-ol [Example 801],–,–,139,20
"CCOc1cc(-c2cc(NCCn3c(C)cc4c(OC)cccc43)ncn2)ccc1CO [compound 127, (2-Ethoxy-4-{6-[2-(4-methoxy-2-methyl-indol-1-yl)-ethylamino]-pyrimidin-4-yl}-phenyl)-methanol]",192,4,–,–
Cc1ccc(F)c2c1cc(C)n2CCNc1cc(-c2cc(F)c(S(N)(=O)=O)c(F)c2)ncn1 [compound 166],733,131,–,–
"COc1ccc(F)c2c1cc(C#N)n2CCNc1cc(-c2ccc3nn[nH]c3c2)ncn1 [Example 985, 1-{2-[6-(3H-Benzotriazol-5-yl)-pyrimidin-4-ylamino]-ethyl}-7-fluoro-4-methoxy-1H-indole-2-carbonitrile]",–,–,14,25
"N#Cc1cc2c(Cl)cc(F)c(F)c2n1CCNc1cc(-c2cc(C(F)(F)F)c(C(=O)O)s2)ncn1 [Example 912, 5-{6-[2-(4-Chloro-2-cyano-6,7-difluoro-indol-1-yl)-ethylamino]pyrimidin-4-yl}-3-trifluoromethyl-thiophene-2-carboxylic acid]",–,–,29,4
Cc1cc(F)cc2c1cc(C)n2CCNc1cc(-c2cc(C(F)(F)F)c(C(=O)O)s2)ncn1 [compound 269],117,61,–,–
"CCCOc1cc(-c2cc(NCCn3c(C#N)cc4c(OC)ccc(F)c43)ncn2)cc(Cl)c1C(=O)O [Example 907, 2-Chloro-4-{6-[2-(2-cyano-7-fluoro-4-methoxy-indol-1-yl)-ethylamino]-pyrimidin-4-yl}-6-propoxy-benzoic acid]",–,–,12,24
"CCOc1cc(-c2cc(NCCn3c(C)cc4c(OC)c(F)cc(Cl)c43)ncn2)sc1C(=O)O [Example 885, 5-{6-[2-(7-Chloro-5-fluoro-4-methoxy-2-methyl-indol-1-yl)-ethylamino]-pyrimidin-4-yl}-3-ethoxy-thiophene-2-carboxylic acid]",–,–,89,40
"CCOc1cc(-c2cc(NCCn3c(C#N)cc4c(OC)ccc(F)c43)ncn2)ccc1OCC(=O)O [Example 808, (4-{6-[2-(2-Cyano-7-fluoro-4-methoxy-indol-1-yl)-ethylamino]-pyrimidin-4-yl}-2-ethoxy-phenoxy)-acetic acid]",–,–,4,7
"COc1ccc(F)c2c1cc(C#N)n2CCNc1cc(-c2c[nH]c3ccccc23)ncn1 [Example 968, 7-Fluoro-1-{2-[6-(1H-indol-3-yl)-pyrimidin-4-ylamino]-ethyl)-4-methoxy-1H-indole-2-carbonitrile]",–,–,15,4
"Cc1ccc(F)c2c1cc(C)n2CCNc1cc(-c2ccc(C(=O)O)c(Cl)c2)ncn1 [compound 29, 2-Chloro-4-{6-[2-(7-fluoro-2,4-dimethyl-indol-1-yl)-ethylamino]-pyrimidin-4-yl}-benzoic acid]",575,18,–,–
"COc1ccc(F)c2c1cc(C#N)n2CCNc1cc(-c2ccc(-c3nc(C)[nH]c3C)cc2)ncn1 [Example 821, 1-(2-{6-[4-(2,5-Dimethyl-1H-imidazol-4-yl)-phenyl]-pyrimidin-4-ylamino}-ethyl)-7-fluoro-4-methoxy-1H-indole-2-carbonitrile]",–,–,2,4
"COc1ccc(F)c2c1cc(C#N)n2CCNc1cc(-c2ccc3[nH]c(=O)[nH]c3c2)ncn1 [Example 1000, 7-Fluoro-4-methoxy-1-{2-[6-(2-oxo-2,3-dihydro-1H-benzoimidazol-5-yl)-pyrimidin-4-ylamino]-ethyl}-1H-indole-2-carbonitrile]",–,–,79,35
CNc1cc(-c2cc(NCCn3c(C)cc4c(OC)ccc(F)c43)ncn2)ccc1C(=O)O [compound 251],37,6,–,–
CCc1cc(-c2cc(NCCn3c(C)cc4c(C)ccc(F)c43)ncn2)sc1C(=O)O [compound 103],58,13,–,–
"COc1ccc(F)c2c1cc(C)n2CCNc1cc(-c2ccc(C(=O)O)c(C3CC3)c2)ncn1 [compound 296, 2-Cyclopropyl-4-{6-[2-(7-fluoro-4-methoxy-2-methyl-indol-1-yl)-ethylamino]-pyrimidin-4-yl}-benzoic acid]",259,7,–,–
"COc1cccc2c1cc(C)n2CCNc1cc(-c2ccc(-c3cscn3)cc2)ncn1 [compound 98, [2-(4-Methoxy-2-methyl-indol-1-yl)-ethyl]-[6-(4-thiazol-4-yl-phenyl)-pyrimidin-4-yl]-amine]",230,7,–,–
